Experimental data as given in patent US8148391B2 (Cephalon, Inc., priority 2006, dated 2012).
Read-outs that look alike come from different tables or passages of the source.

Assays:
[1] = biological target: T1, baculovirus-expressed ALK (Homo sapiens, UniProt Q9UM73); assay: ALK Kinase Assay (ELISA-type, time-resolved fluorescence); assay type: biochemical
T1 construct: host or cells: baculovirus expression system
Procedure, shortened: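 Substrate coating: phospholipase C-γ, 10 μg/mL in TBS. Kinase step: 30 ng/ml ALK, 15 min, 37° C. Detection and analysis: Eu-N1 PT66 antibody, with IC50 fitted as a sigmoidal variable-slope dose-response curve.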

[2] = biological target: T2, c-Met (cytoplasmic domain) (Homo sapiens, UniProt P08581); assay: c-Met Kinase Assay (same methods as for ALK, with modifications); assay type: biochemical
T2 construct: 10 ng/mL c-Met (cytoplasmic domain, Invitrogen Corporation #PV3143); purchased Invitrogen Corporation PV3143
T2 sequence (P08581 956-1390 limits assumed): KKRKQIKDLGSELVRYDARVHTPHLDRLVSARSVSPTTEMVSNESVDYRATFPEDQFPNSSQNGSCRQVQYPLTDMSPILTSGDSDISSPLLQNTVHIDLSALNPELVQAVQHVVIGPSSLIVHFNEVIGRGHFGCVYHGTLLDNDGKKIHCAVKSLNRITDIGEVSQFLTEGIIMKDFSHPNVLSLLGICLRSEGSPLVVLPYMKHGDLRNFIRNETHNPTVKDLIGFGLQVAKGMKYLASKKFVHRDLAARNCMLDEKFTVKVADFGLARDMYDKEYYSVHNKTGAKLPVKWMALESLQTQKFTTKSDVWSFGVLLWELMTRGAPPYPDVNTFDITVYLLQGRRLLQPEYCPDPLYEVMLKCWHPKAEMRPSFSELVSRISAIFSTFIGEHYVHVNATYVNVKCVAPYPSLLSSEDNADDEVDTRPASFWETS
Procedure, shortened: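 Wells were coated with 10 μg/mL phospholipase C-γ substrate in TBS, and reactions were started with 10 ng/mL c-Met cytoplasmic domain and run at 37° C for 15 minutes. Phosphorylated product was detected with Eu-N1-labeled PT66 antibody. IC50 values came from sigmoidal variable-slope fits of percent inhibition versus log compound concentration.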

[3] = 1 μM ATP (Km level), 30 ng/ml ALK, 37° C., 15 minutes, read-out: ALK Activity (ALK kinase inhibition, IC50 class)
[4] = 1 μM ATP (Km level), 10 ng/mL c-Met, read-out: cMet Activity (c-Met kinase inhibition, IC50 class)
[5] = ALK kinase inhibition, 1 μM ATP (Km level), read-out: ALK Activity
[6] = c-Met kinase inhibition, 1 μM ATP (Km level), read-out: cMet Activity
[7] = 1 μM ATP (Km level), read-out: ALK Activity (ALK Kinase Inhibition, IC50)
[8] = 1 μM ATP (Km level), read-out: cMet Activity (c-Met Kinase Inhibition, IC50)
[9] = ALK kinase inhibition, 1 μM ATP, read-out: ALK Activity
[10] = c-Met kinase inhibition, 1 μM ATP, read-out: cMet Activity

T1 sequence (Q9UM73 19-1620): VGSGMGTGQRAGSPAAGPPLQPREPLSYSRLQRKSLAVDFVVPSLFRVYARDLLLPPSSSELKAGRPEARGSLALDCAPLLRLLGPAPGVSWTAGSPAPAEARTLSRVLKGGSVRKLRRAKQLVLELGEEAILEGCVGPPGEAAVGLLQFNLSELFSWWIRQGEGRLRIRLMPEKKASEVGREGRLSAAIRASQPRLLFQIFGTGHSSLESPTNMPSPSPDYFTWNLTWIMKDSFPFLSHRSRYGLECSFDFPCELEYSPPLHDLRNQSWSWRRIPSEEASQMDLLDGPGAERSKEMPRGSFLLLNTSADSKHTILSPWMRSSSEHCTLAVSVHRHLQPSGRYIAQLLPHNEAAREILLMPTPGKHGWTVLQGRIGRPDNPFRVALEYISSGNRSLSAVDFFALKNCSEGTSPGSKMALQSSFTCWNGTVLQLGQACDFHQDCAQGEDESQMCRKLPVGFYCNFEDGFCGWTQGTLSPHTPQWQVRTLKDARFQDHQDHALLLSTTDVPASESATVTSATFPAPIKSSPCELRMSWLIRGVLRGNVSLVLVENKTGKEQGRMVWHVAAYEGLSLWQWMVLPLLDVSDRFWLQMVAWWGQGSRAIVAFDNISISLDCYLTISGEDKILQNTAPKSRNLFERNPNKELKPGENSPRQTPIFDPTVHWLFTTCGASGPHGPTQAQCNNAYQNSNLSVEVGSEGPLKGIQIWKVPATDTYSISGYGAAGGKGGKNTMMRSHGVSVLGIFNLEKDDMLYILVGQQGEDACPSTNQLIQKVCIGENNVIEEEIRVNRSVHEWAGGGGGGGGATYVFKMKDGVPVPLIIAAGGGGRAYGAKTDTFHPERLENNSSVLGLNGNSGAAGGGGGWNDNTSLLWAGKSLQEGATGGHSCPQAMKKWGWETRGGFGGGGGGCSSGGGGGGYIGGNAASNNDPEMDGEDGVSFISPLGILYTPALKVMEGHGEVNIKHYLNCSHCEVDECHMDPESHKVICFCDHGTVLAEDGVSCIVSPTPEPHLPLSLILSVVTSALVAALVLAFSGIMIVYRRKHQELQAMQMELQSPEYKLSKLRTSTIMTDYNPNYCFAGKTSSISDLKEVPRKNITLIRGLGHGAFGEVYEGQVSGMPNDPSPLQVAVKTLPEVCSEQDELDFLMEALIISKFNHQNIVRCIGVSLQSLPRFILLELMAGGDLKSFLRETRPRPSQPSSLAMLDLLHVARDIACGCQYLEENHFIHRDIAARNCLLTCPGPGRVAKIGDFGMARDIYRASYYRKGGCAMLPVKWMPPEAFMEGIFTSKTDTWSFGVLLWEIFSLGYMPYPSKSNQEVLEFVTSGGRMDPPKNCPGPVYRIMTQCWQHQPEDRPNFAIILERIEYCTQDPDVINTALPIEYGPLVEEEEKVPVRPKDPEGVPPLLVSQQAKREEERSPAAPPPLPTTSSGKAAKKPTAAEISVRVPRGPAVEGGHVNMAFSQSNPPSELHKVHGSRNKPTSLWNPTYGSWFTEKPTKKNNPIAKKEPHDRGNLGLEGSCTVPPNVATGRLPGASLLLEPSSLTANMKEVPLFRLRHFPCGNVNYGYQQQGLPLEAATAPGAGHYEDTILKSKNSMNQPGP

Structure (SMILES) | IC50 [1, 5] | IC50 [2, 6] | IC50 [1, 7] | IC50 [2, 8] | other results
CCCCNC(=O)c1ccccc1Nc1nc(Nc2ccc3c(c2)CCN(CCOC)CC3)ncc1Cl [Example 1028, N-Butyl-2-{5-chloro-2-[3-(2-methoxy-ethyl)-2,3,4,5-tetrahydro-1H-benzo[d]azepin-7-ylamino]-pyrimidin-4-ylamino}-benzamide] |  |  |  |  | IC50 [1, 3]: < 100 nM; IC50 [2, 4]: 100 to 1000 nM
CNC(=O)c1ccccc1Nc1nc(Nc2ccc3c(c2)CCNCC3)ncc1Cl [Example 45, 2-[5-Chloro-2-(2,3,4,5-tetrahydro-1H-benzo[d]azepin-7-ylamino)-pyrimidin-4-ylamino]-N-methyl-benzamide] | < 100 nM | < 100 nM |  |  | 
C#CCNC(=O)c1cccc(F)c1Nc1nc(Nc2ccc3c(c2)CCN(C(=O)C2COCCO2)CC3)ncc1Cl (stereo not shown) [Example 640, 2-{5-Chloro-2-[3-([1,4]dioxane-2-carbonyl)-2,3,4,5-tetrahydro-1H-benzo[d]azepin-7-ylamino]-pyrimidin-4-ylamino}-3-fluoro-N-prop-2-ynyl-benzamide] |  |  | 100 to 1000 nM | < 100 nM | 
CCN1CC(=O)Nc2cc(Nc3ncc(Cl)c(Nc4c(F)cccc4C(=O)NC)n3)ccc2C1 [Example 1863, 2-[5-Chloro-2-(4-ethyl-2-oxo-2,3,4,5-tetrahydro-1H-benzo[e][1,4]diazepin-8-ylamino)-pyrimidin-4-ylamino]-3-fluoro-N-methyl-benzamide] |  |  |  |  | IC50 [1, 9]: 100 to 1000 nM; IC50 [2, 10]: < 100 nM
COCC(COC)N1CCc2cc(Nc3ncc(Cl)c(Nc4ccc(Cl)cc4S(=O)(=O)N(C)C)n3)c(OC)cc2CC1 [Example 838, 5-Chloro-2-{5-chloro-2-[8-methoxy-3-(2-methoxy-1-methoxymethyl-ethyl)-2,3,4,5-tetrahydro-1H-benzo[d]azepin-7-ylamino]-pyrimidin-4-ylamino}-N,N-dimethyl-benzenesulfonamide] |  |  | < 100 nM | > 10000 nM | 
CNC(=O)[C@H]1[C@@H](Nc2nc(Nc3ccc4c(c3)CCN(CCOC)CC4)ncc2Cl)[C@@H]2C=C[C@H]1C2 (relative stereo) [Example 615, (2-exo-3-exo)-3-{5-Chloro-2-[3-(2-methoxy-ethyl)-2,3,4,5-tetrahydro-1H-benzo[d]azepin-7-ylamino]-pyrimidin-4-ylamino}-bicyclo[2.2.1]hept-5-ene-2-carboxylic acid methylamide] |  |  | < 100 nM | 100 to 1000 nM | 
COc1c(Nc2ncc(Cl)c(N[C@H]3[C@@H](C(N)=O)[C@@H]4C=C[C@H]3C4)n2)ccc2c1CCC(N1CCCC(O)C1)CC2 (stereo partly drawn) [Example 910, (1S,2S,3R,4R)-3-{5-Chloro-2-[7-(3-hydroxy-piperidin-1-yl)-1-methoxy-6,7,8,9-tetrahydro-5H-benzocyclohepten-2-ylamino]-pyrimidin-4-ylamino}-bicyclo[2.2.1]hept-5-ene-2-carboxylic acid amide] |  |  | < 100 nM | > 10000 nM | 
COc1cc2c(cc1Nc1ncc(Cl)c(Nc3ccccc3-n3cccn3)n1)CCC(N1CCOCC1)CC2 (stereo not shown) [Example 1052, 5-Chloro-N*2*-(3-methoxy-7-morpholin-4-yl-6,7,8,9-tetrahydro-5H-benzocyclohepten-2-yl)-N*4*-(2-pyrazol-1-yl-phenyl)-pyrimidine-2,4-diamine] |  |  |  |  | IC50 [1, 3]: < 100 nM; IC50 [2, 4]: > 10000 nM
C#CCNC(=O)c1cc(F)cc(F)c1Nc1nc(Nc2ccc3c(c2)N(C(=O)N2CCCC2)CCCC3(C)C)ncc1Cl [Example 1622, 2-{5-Chloro-2-[5,5-dimethyl-1-(pyrrolidine-1-carbonyl)-2,3,4,5-tetrahydro-1H-benzo[b]azepin-8-ylamino]-pyrimidin-4-ylamino}-3,5-difluoro-N-prop-2-ynyl-benzamide] |  |  |  |  | IC50 [1, 9]: 1000 to 10000 nM; IC50 [2, 10]: 100 to 1000 nM
CCN1CCN(CC)c2cc(Nc3ncc(Cl)c(N[C@@H]4CCCC[C@H]4NS(C)(=O)=O)n3)ccc2C1 [Example 426, N-{(1R,2R)-2-[5-Chloro-2-(1,4-diethyl-2,3,4,5-tetrahydro-1H-benzo[e][1,4]diazepin-8-ylamino)-pyrimidin-4-ylamino]-cyclohexyl}-methanesulfonamide] | < 100 nM | 100 to 1000 nM |  |  | 
COCCN1CCc2cc(Nc3ncc(Cl)c(Nc4ccc(Cl)cc4S(=O)(=O)N(C)C)n3)c(OC)cc2CC1 [Example 839, 5-Chloro-2-{5-chloro-2-[8-methoxy-3-(2-methoxy-ethyl)-2,3,4,5-tetrahydro-1H-benzo[d]azepin-7-ylamino]-pyrimidin-4-ylamino}-N,N-dimethyl-benzenesulfonamide] |  |  | < 100 nM | > 10000 nM | 
CNC(=O)c1cccc(Cl)c1Nc1nc(Nc2ccc3c(c2)N(C)CCNC3)ncc1Cl [Example 460, 3-Chloro-2-[5-chloro-2-(1-methyl-2,3,4,5-tetrahydro-1H-benzo[e][1,4]diazepin-8-ylamino)-pyrimidin-4-ylamino]-N-methyl-benzamide] | 100 to 1000 nM | < 100 nM |  |  | 
CC1(C)CCC(=O)Nc2ccc(Nc3ncc(Cl)c(Nc4ccccc4-c4ncccn4)n3)cc21 [Example 976, 7-[5-Chloro-4-(2-pyrimidin-2-yl-phenylamino)-pyrimidin-2-ylamino]-5,5-dimethyl-1,3,4,5-tetrahydro-benzo[b]azepin-2-one] |  |  | < 100 nM | > 10000 nM | 
CNC(=O)c1ccccc1Nc1nc(Nc2cccc3c2CN(C(C)=O)CCN3)ncc1Cl [Example 236, 2-[2-(4-Acetyl-2,3,4,5-tetrahydro-1H-benzo[e][1,4]diazepin-6-ylamino)-5-chloro-pyrimidin-4-ylamino]-N-methyl-benzamide] | 100 to 1000 nM | 1000 to 10000 nM |  |  | 
CC1(C)CCC(=O)Nc2ccc(Nc3ncc(Cl)c(Nc4ccccc4C(=O)NC4CC4)n3)cc21 [Example 341] | < 100 nM | 100 to 1000 nM |  |  | 
CNC(=O)c1ccccc1Nc1nc(Nc2ccc3c(c2)C2CCC3CN(S(C)(=O)=O)C2)ncc1Cl (stereo not shown) [Example 278, 2-[5-Chloro-2-(10-methanesulfonyl-10-aza-tricyclo[6.3.2.0*2,7*]trideca-2,4,6-trien-4-ylamino)-pyrimidin-4-ylamino]-N-methyl-benzamide] | < 100 nM | < 100 nM |  |  | 
COc1cc2c(cc1Nc1ncc(Cl)c(N[C@H]3[C@@H](C(N)=O)[C@@H]4C=C[C@H]3C4)n1)CCC(NCC(F)F)CC2 (single isomer, unassigned) [Example 1053] |  |  |  |  | IC50 [1, 3]: < 100 nM; IC50 [2, 4]: > 10000 nM
CNC(=O)c1ccccc1Nc1nc(Nc2cc3c(cc2OC)CC(=O)N(CCCN2CCOCC2)CC3)ncc1Cl [Example 1126, 2-{5-Chloro-2-[8-methoxy-3-(3-morpholin-4-yl-propyl)-2-oxo-2,3,4,5-tetrahydro-1H-benzo[d]azepin-7-ylamino]-pyrimidin-4-ylamino}-N-methyl-benzamide] |  |  |  |  | IC50 [1, 3]: < 100 nM; IC50 [2, 4]: > 10000 nM
CNC(=O)c1ccccc1Nc1nc(Nc2ccc3c(c2)C2CCC3CN(CC#N)C2)ncc1Cl (stereo not shown) [Example 281, 2-[5-Chloro-2-(10-cyanomethyl-10-aza-tricyclo[6.3.2.0*2,7*]trideca-2,4,6-trien-4-ylamino)-pyrimidin-4-ylamino]-N-methyl-benzamide] | < 100 nM | < 100 nM |  |  | 
COc1cc2c(cc1Nc1ncc(C(F)(F)F)c(Nc3ccccc3S(=O)(=O)C(C)C)n1)CCN(CC(=O)N(C)C)CC2 [Example 932, 2-(7-Methoxy-8-{4-[2-(propane-2-sulfonyl)-phenylamino]-5-trifluoromethyl-pyrimidin-2-ylamino}-1,2,4,5-tetrahydro-3-benzazepin-3-yl)-N,N-dimethyl-acetamide] |  |  | 1000 to 10000 nM | > 10000 nM | 
